# Laboratory results as given in US10906900B2, “Compounds for using in imaging and particularly for the diagnosis of neurodegenerative diseases” (CENTRE NATIONAL DE LA RECHERCHE SCIENTIFIQUE, priority 2016, dated 2021).
# Key:
# Aβ1-42 fibers [1] = target: Aβ1-42 fibers (Homo sapiens, UniProt P05067); assay: In vitro direct determination of Kd and Bmax by fluorescence, Aβ1-42 fibers; type: binding
# Experimental: (§1) To obtain fiber assembly, α-syn is incubated in Tris-HCl 50 mM pH7.5, KCl 150 mM at 37° C. under continuous agitation during 4 days. The lyophilized Aβ1-42 was dissolved in 1,1,1,3,3,3-Hexafluoro-2-propanol (HFIP) at 0.2 mg/mL and incubated for 24 h at 37° C. to obtain the complete solubilization. The HFIP is evaporated under nitrogen stream to obtain a dry product. To start the fiber assembly, the dry peptide is resuspended in PBS pH7.4, 10% (v/v) DMSO and incubated at 37° C. for 3 days without agitation.
# (§2) Fresh solutions of each test compound (2.5 mM in DMSO) are diluted in PBS pH=7.4 at concentrations between 0.5 nM and 5 μM in the presence or absence of α-syn (200 nM), Aβ1-42 (500 nM) or Tau (200 nM) fibers in a final 2 mL volume. After 1 h of incubation at RT, the binding of each compound to α-syn, A131-42 or Tau fibers is measured by fluorescence using the spectral changes of the compounds during their binding to the fibers, using the appropriate excitation/emission wavelengths (those giving the highest fluorescence variation during binding to the fibres). For each concentration of compound added to the fibres, the bound and free fractions are measured by fluorescence according to the following equation: Fm=FBB+FF×(T−B)
# (§3) The value of FF is determined by measuring the fluorescence of known concentrations of compounds in the absence of fibres. The FB value is determined by measuring the maximum fluorescence of known concentrations of compounds in the presence of saturated concentrations of α-syn, Aβ1-42, or Tau fibers.
# (§4) The values of B thus determined versus the concentrations of the free fractions (T-B) are analyzed according to the Michaelis-Menten equation. The affinity (Kd) and density of binding sites within the fibers of α-syn, Aβ1-42 or Tau (Bmax) are determined by Scatchard analysis, which also makes it possible to highlight multiple site classes.
# Aβ1-42 fibers [2] = assay: as above; type: binding; conditions: selective = good affinity and at least two times greater than for at least one of the two other proteins
# Experimental: as §1, §2, §3, §4
# Tau fibers = Tau fibers (Homo sapiens (Human), UniProt P10636); assay: In vitro direct determination of Kd and Bmax by fluorescence, Tau fibers; type: binding
# Experimental: Human Tau protein (isoform h2N4RTau) is expressed in the vector pET11d in E. Coli (strain BL21 (DE3), (Stratagene, La Jolla, Calif.)) and purified according to the described method (Barghorn S, Biernat J, Mandelkow E. (2005) Methods Mol Biol. 299:35-51). The Tau purified concentration is determined by measuring the absorbance at 280 nm using a molar extinction coefficient of 7450 M^−1 cm^−1.
# Tau protein in PBS buffer containing 1 mM DTT is assembled into fiber in the presence of one twelfth of a molar equivalent of heparin at 37° C. under stirring.
# as §2
# Where Fm is the fluorescence measured in the presence of fibers at a concentration T of the compound added to the fibers, FB is the specific fluorescence of the bound compound, FF is the specific fluorescence of the free compound, and B is the concentration of the fiber bound compound at a given concentration T (Bell, J. E., “Fluorescence; Solution Studies”, Spectrometry in Biochemistry, vol. I, Bell, J. E., ed., CRC Press, Inc., Boca Raton, Fla., pp. 155-194 (1981)).
# as §3
# Thus, at each point, the concentration of bound compound B is determined according to the following equation: B=(Fm−FF×T)/(FB−FF)
# as §4
# [3] = In vivo evaluation of fluorine-18-labelled tracer: PET/CT and tissue radioactivity (BBB crossing, bone fixation); conditions: healthy adult male Wistar rat, intravenous injection of 18F tracer
# Experimental: The objective is to determine whether the tracer has the blood-brain barrier (BBB) crossing properties in sufficient quantities to be used as a PET imaging tracer. In addition, bone fixation can be qualified, which reflects the degree of defluorination of the tracer in vivo.
# Animal Model: Adult male rats of Wistar strain.
# In vivo study: the healthy animal receives an intravenous injection of the tracer test (molecule 28).
# From the moment of injection, imaging is carried out using a dedicated system (PET/CT) which records the intracerebral accumulation of radioactivity (Sérrière et al. Nucl. Med. Biol. 2014, 41:103-13; Sérrière et al. Neurobiol. Aging 2015, 36:1639-52). At the end of the imaging, the animal is euthanized; the brain and a bone fragment (femur) are collected, weighed and their radioactivity is measured. This method allows to precisely quantify the accumulation of the tracer in the tissues. The results are expressed as a percentage of the injected tracer dose/g of tissue (% DI/g).
# α-syn fibers = α-syn fibers (Homo sapiens (Human), UniProt P37840); assay: In vitro direct determination of Kd and Bmax by fluorescence, α-syn fibers; type: binding
# Experimental: as §1, §2, §3, §4
# [4] = density of binding sites, direct fluorescence, Scatchard analysis
# Chain of Aβ1-42 fibers (Homo sapiens, UniProt P05067) (P05067 672-713 limits assumed): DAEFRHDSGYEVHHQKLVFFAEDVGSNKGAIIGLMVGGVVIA
# Chain of Tau fibers (P10636 other isoform, or with tags, fused parts or gaps): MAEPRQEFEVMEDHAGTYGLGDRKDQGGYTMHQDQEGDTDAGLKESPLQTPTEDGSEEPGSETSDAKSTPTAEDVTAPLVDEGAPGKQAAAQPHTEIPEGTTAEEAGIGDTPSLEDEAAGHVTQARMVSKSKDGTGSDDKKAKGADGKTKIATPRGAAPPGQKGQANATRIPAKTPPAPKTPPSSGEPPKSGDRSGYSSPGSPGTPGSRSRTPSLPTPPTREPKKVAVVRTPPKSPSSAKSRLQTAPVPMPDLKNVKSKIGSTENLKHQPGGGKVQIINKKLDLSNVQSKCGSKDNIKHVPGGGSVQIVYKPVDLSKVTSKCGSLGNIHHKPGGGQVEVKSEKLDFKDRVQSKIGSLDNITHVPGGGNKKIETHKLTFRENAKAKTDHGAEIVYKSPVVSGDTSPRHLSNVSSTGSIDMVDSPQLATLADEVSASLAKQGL
compound,measurement,setting,value
"CN(CCF)c1ccc(C#Cc2cc3cccnc3[nH]2)cc1 [Compound 28, 4-((1H-Pyrrolo[2,3-b]pyridin-2-yl)ethynyl)-N-(2-fluoroethyl)-N-methylaniline]",Aβ Bmax1,Aβ1-42 fibers [1]; [4],1.8 ± 0.6 nmol/μmol prot
same,Kd,"Aβ1-42 fibers [1]; direct fluorescence, Scatchard analysis, Aβ1-42 fibers 500 nM, read-out: Aβ Kd1",1.2 ± 1 nM
same,Aβ Bmax1 (number of sites/monomer),Aβ1-42 fibers [1]; in brackets in the Bmax cell,1/600
same,Aβ selectivity according to analysis of Kd (Tables 6 and 7),Aβ1-42 fibers [2],selective
same,Tau Bmax1,Tau fibers; [4],46.5 ± 5 nmol/μmol prot
same,Kd,"Tau fibers; direct fluorescence, Scatchard analysis, Tau fibers 200 nM, read-out: Tau Kd1",0.97 ± 0.4 nM
same,Tau Bmax1 (number of sites/monomer),Tau fibers; in brackets in the Bmax cell,1/20
same,Tau selectivity according to analysis of Kd (Tables 6 and 7),Tau fibers; selective = good affinity and at least two times greater than for at least one of the two other proteins,selective
same,"Passing of the BBB: brain accumulation, percentage of injected tracer dose/g of tissue",[3]; brain collected at end of imaging,≈ 0.4 % DI/g
same,"binding to bone: femur accumulation, percentage of injected tracer dose/g of tissue","[3]; femur at end of imaging, reflects defluorination",0.3 % DI/g
same,αsyn Bmax1,α-syn fibers; [4],141.5 ± 45 nmol/μmol prot
same,Kd,"α-syn fibers; direct fluorescence, Scatchard analysis, α-syn fibers 200 nM, read-out: αsyn Kd1",2.4 ± 1 nM
same,αsyn Bmax1 (number of sites/monomer),α-syn fibers; in brackets in the Bmax cell,1/7
